Assay results reported in patent US20080132522A1, “2-Substituted Pyrimidines, Method for Their Production and Their Use for Controlling Pathogenic Fungi” (BASF Aktiengesellschaft, priority 2004, published 2008).

Tests used:
Alternaria solani = assay: Activity against early blight of tomato caused by Alternaria solani; assay type: in vivo; conditions: 250 ppm; tomato "Goldene Königin"; after 5 days; untreated 90% infected
Procedure: (§1) The active compounds were prepared separately as a stock solution with 25 mg of active compound which was made up to 10 ml with a mixture of acetone and/or DMSO and the emulsifier Uniperol® EL (wetting agent having emulsifying and dispersing action based on ethoxylated alkylphenols) in a volume ratio solvent/emulsifier of 99 to 1. The solution was then made up to 100 ml with water. This stock solution was diluted to the active compound concentration stated below using the solvent/emulsifier/water mixture described.
Activity Against Early Blight of Tomato Caused by Alternaria solani
Leaves of potted plants of the cultivar “Goldene Königin” were sprayed to runoff point with an aqueous suspension having the concentration of active compounds stated below. The next day, the leaves were inoculated with an aqueous spore suspension of Alternaria solani in 2% biomalt solution having a density of 0.17×10^6 spores/ml. The plants were then placed in a water-vapor-saturated chamber at temperatures of between 20 and 22° C. After 5 days, the disease on the leaves of the untreated, but infected control plants had developed to such an extent that the infection could be determined visually in %.

Pyrenophora teres = assay: Activity against net blotch of barley caused by Pyrenophora teres, 1 day protective application; assay type: in vivo, Pyrenophora [syn. Drechslera] teres; conditions: 250 ppm; barley "Hanna"; after 6 days; untreated 90% infected
Procedure: The active compounds were prepared separately as a stock solution with 25 mg of active compound which was made up to 10 ml with a mixture of acetone and/or DMSO and the emulsifier Uniperol® EL (wetting agent having emulsifying and dispersing action based on ethoxylated alkylphenols) in a volume ratio solvent/emulsifier of 99 to 1. The solution was then made up to 100 ml with water. This stock solution was diluted to the active compound concentration stated below using the solvent/emulsifier/water mixture described. Activity Against Net Blotch of Barley Caused by Pyrenophora teres, 1 Day Protective Application Leaves of potted barley seedlings of the cultivar “Hanna” were sprayed to runoff point with an aqueous suspension having the concentration of active compounds stated below. 24 hours after the spray coating had dried on, the test plants were inoculated with an aqueous spore suspension of Pyrenophora [syn. Drechslera] teres, the net blotch pathogen. The test plants were then placed in a greenhouse at temperatures between 20 and 24° C. and 95 to 100% relative atmospheric humidity. After 6 days, the extent of the development of the disease was determined visually in % infection of the entire leaf area.

Botrytis cinerea = assay: Activity against gray mold on bell pepper leaves caused by Botrytis cinerea, protective application; assay type: in vivo; conditions: 250 ppm; bell pepper "Neusiedler Ideal Elite"; after 5 days; untreated 90% infected
Procedure: as §1
Activity Against Gray Mold on Bell Pepper Leaves Caused by Botrytis cinerea, Protective Application
Bell pepper seedlings of the cultivar “Neusiedler Ideal Elite” were, after 2-3 leaves were well-developed, sprayed to runoff point with an aqueous suspension having the concentration of active compound stated below. The next day, the treated plants were inoculated with a spore suspension of Botrytis cinerea which contained 1.7×10^6 spores/ml in a 2% strength aqueous biomalt solution. The test plants were then placed in a dark climatized chamber at 22-24° C. and high atmospheric humidity. After 5 days, the extent of the fungal infection on the leaves could be determined visually in %.

melting point | Structure (SMILES) | infection of treated leaf areas (Alternaria solani) | infection of treated leaf areas (Pyrenophora teres) | infection of treated leaf areas (Botrytis cinerea)
32 °C | CC(C)Oc1nc(C#N)nc(Cl)c1-c1c(F)cc(F)cc1F [5), 4-Chloro-2-cyano-6-isopropoxy-5-(2,4,6-trifluorophenyl)pyrimidine] | – | – | –
106 to 107 °C | CC(C)Oc1nc(-n2cccn2)nc(Cl)c1-c1c(F)cc(F)cc1F [1), 4-Chloro-6-isopropoxy-2-(pyrazol-1-yl)-5-(2,4,6-trifluorophenyl)pyrimidine] | only little infection | only little infection | only little infection
– | CON=C(N)c1nc(Cl)c(-c2c(F)cc(F)cc2F)c(OC(C)C)n1 [3), O-Methyl (4-chloro-6-isopropoxy-5-(2,4,6-trifluorophenyl)pyrimidin-2-yl)carbamidoxime] | only little infection | only little infection | only little infection
– | CC(C)(C)Oc1nc(-c2ccccn2)nc(Cl)c1-c1c(F)cccc1Cl [4)] | only little infection | only little infection | only little infection
